{
  "source": "patent US20220016142A1",
  "about": "“COMBINATION THERAPY FOR TREATMENT OF CANCER” (PLUS VITECH, S.L., priority 2018, published 2022)",
  "tested_on": "B16F10 cells (melanoma)",
  "test": "B16F10 melanoma tumor growth in mice (Example 2b)",
  "format": "in vivo, C57BL/6J mice",
  "conditions": "maropitant 30 mg/kg i.p. once a day, anti CTLA-4 5 mg/kg i.p. every other day, FIG. 5",
  "description": "One Lewis Pulmonar Carcinoma cell line: 3LL; and one melanoma cell line: B16F10 (ATCC cell bank; LGC Standards); were used in this study. Both cell lines were maintained in culture in Dulbecco's modified Eagle's medium (DMEM) (Gibco, Thermo Fisher Scientific) supplemented with 10% foetal bovine serum (FBS) (Gibco, Thermo Fisher Scientific), 2 mM L-glutamine (Sigma-Aldrich, Merk) and Peni-Strep (50 U/ml and […]; Gibco, Thermo Fisher Scientific) in a humidified incubator at 37° C. and 5% CO2.\nCerenia® (maropitant citrate injectable solution; Zoetis US) was injected intraperitoneally at a dose of 30 mg/kg, once a day. […]\n3LL cells (0.6×10^6 per mouse) or B16F10 cells (1×10^6 per mouse) were subcutaneously injected into the right flank of C57BL/6J mice (Charles River) with matrigel (Matrigel Membrane Matrix, Corning) at 50% v/v. Tumor growth was evaluated every 2/3 days. Animal vital parameters were monitored daily. […]\nIn order to evaluate the effect of Maropitant and anti CTLA-4 combination in vivo, B16F10 tumor-bearing mice were randomly assigned into four treatment groups as detailed in table 1 (n=6 mice per group) to receive either Maropitant 30 mg/kg, anti CTLA-4 5 mg/kg, the combination of both agents or the equivalent volume of vehicle. Tumor growth was recorded as detailed in Materials and Methods. […]",
  "data": [
    {"smiles": "COc1ccc(C(C)(C)C)cc1CN[C@H]1C2CCN(CC2)[C@H]1C(c1ccccc1)c1ccccc1.O=C(O)CC(O)(CC(=O)O)C(=O)O", "note": "[Maropitant, maropitant citrate]", "values": [
      {"measurement": "reduction in tumor growth compared to vehicle group", "setting": "after 9 days of treatment", "value": 28, "unit": "%"},
      {"measurement": "effect on growth of melanoma tumours (in words)", "setting": "9 days", "value": "inhibited the grown of melanoma tumours"}
    ]}
  ]
}
